Data on 8 cell lines can be found in the supplement of paper PMC10307832.

Common to all, as to assay: relative viability (nuclei count vs DMSO), 5 days (fraction); higher = more cells survive
Compound in the assay “Motesanib + Vorinostat”: CC1(C)CNc2cc(NC(=O)c3cccnc3NCc3ccncc3)ccc21 [Motesanib] + O=C(CCCCCCC(=O)Nc1ccccc1)NO [Vorinostat] (partner 1 µM)
The gist of the method: (§1)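 The day after seeding in 1536-well plates, lung cancer cell lines were treated by pin tool with a single drug, or with a fixed anchor-drug dose together with five library-drug doses (not always all listed) in √10 steps. After 5 days, a combined fix-and-stain solution (final 0.05% Triton X-100, 1% formaldehyde, 1 ug/ml Hoechst) was added. Nuclei counted on 4× images gave relative viability as treated counts over vehicle counts, reported as the median of duplicate plates.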

Compound in assay [1]: C[C@@]1(C(=O)Nc2ccc(F)nc2)CCCN1c1nc(Nc2cc(C3CC3)n[nH]2)c2cccn2n1 + Cc1nc(Nc2ncc(C(=O)Nc3c(C)cccc3Cl)s2)cc(N2CCN(CCO)CC2)n1 [Dasatinib] (partner 0.075 µM)
In a few lines:
as §1

Compound in assay [2]: C[C@@]1(C(=O)Nc2ccc(F)nc2)CCCN1c1nc(Nc2cc(C3CC3)n[nH]2)c2cccn2n1 + Nc1ncn([C@H]2C[C@H](O)[C@@H](CO)O2)c(=O)n1 [Decitabine] (partner 2 µM)
The gist of the method:
as §1

Compound in assay [3]: C[C@@]1(C(=O)Nc2ccc(F)nc2)CCCN1c1nc(Nc2cc(C3CC3)n[nH]2)c2cccn2n1 + O=C(CCCCCCC(=O)Nc1ccccc1)NO [Vorinostat] (partner 1 µM)
In a few lines:
as §1

NCI-H1915: the relative viability with Motesanib + Vorinostat (first compound 0.01 µM) worked out at 0.603; in the assay with Motesanib + Vorinostat (first compound 0.03162 µM), 0.489; with Motesanib + Vorinostat (first compound 0.1 µM) it was 0.479; with Motesanib + Vorinostat (first compound 0.3162 µM), 0.544; with Motesanib + Vorinostat (first compound 1 µM) it was 0.527; in assay [1] (first compound 0.04 µM), 0.302. For the same cell line, the relative viability in assay [1] (first compound 0.1265 µM) was 0.3; in assay [1] (first compound 0.4 µM) it was 0.288; in assay [1] (first compound 1.265 µM) it was 0.268; in assay [2] (first compound 0.04 µM) it was 0.266; in assay [2] (first compound 0.1265 µM) it was 0.278; in assay [2] (first compound 0.4 µM) it was 0.251. Moreover, the relative viability in assay [2] (first compound 1.265 µM) is 0.258; in assay [3] (first compound 0.04 µM), 0.54; in assay [3] (first compound 0.1265 µM), 0.519; in assay [3] (first compound 0.4 µM) it was 0.475; in assay [3] (first compound 1.265 µM), 0.492.
For the cell line NCI-H2405, the relative viability was 0.941 with Motesanib + Vorinostat (first compound 0.01 µM); 0.989 with Motesanib + Vorinostat (first compound 0.03162 µM); 0.96 in the assay with Motesanib + Vorinostat (first compound 0.1 µM); 1 with Motesanib + Vorinostat (first compound 0.3162 µM); 0.994 with Motesanib + Vorinostat (first compound 1 µM); 0.211 in assay [1] (first compound 0.04 µM). Also, the relative viability in assay [1] (first compound 0.1265 µM) is 0.177; in assay [1] (first compound 0.4 µM), 0.185; in assay [1] (first compound 1.265 µM), 0.186; in assay [2] (first compound 0.04 µM) it was 0.68; in assay [2] (first compound 0.1265 µM), 0.487; in assay [2] (first compound 0.4 µM), 0.488. The relative viability in assay [2] (first compound 1.265 µM) is 0.576; in assay [3] (first compound 0.04 µM), 0.959; in assay [3] (first compound 0.1265 µM) it was 0.889; in assay [3] (first compound 0.4 µM) it was 0.634; in assay [3] (first compound 1.265 µM) it was 0.44.
Consider NCI-H322M, for which the relative viability came out at 0.962 with Motesanib + Vorinostat (first compound 0.01 µM); 0.88 with Motesanib + Vorinostat (first compound 0.03162 µM); 0.871 with Motesanib + Vorinostat (first compound 0.1 µM); 1.03 in the assay with Motesanib + Vorinostat (first compound 0.3162 µM); 0.849 with Motesanib + Vorinostat (first compound 1 µM); 0.239 in assay [1] (first compound 0.04 µM). The relative viability worked out at 0.197 in assay [1] (first compound 0.1265 µM); 0.241 in assay [1] (first compound 0.4 µM); 0.225 in assay [1] (first compound 1.265 µM); 0.658 in assay [2] (first compound 0.04 µM); 0.533 in assay [2] (first compound 0.1265 µM); 0.494 in assay [2] (first compound 0.4 µM). Further, the relative viability is 0.547 in assay [2] (first compound 1.265 µM); 0.794 in assay [3] (first compound 0.04 µM); 0.688 in assay [3] (first compound 0.1265 µM); 0.638 in assay [3] (first compound 0.4 µM); 0.64 in assay [3] (first compound 1.265 µM).
Turning to NCI-H2170, the relative viability came to 0.797 with Motesanib + Vorinostat (first compound 0.01 µM); 0.851 in the assay with Motesanib + Vorinostat (first compound 0.03162 µM); 0.804 with Motesanib + Vorinostat (first compound 0.1 µM); 0.837 with Motesanib + Vorinostat (first compound 0.3162 µM); 0.818 in the assay with Motesanib + Vorinostat (first compound 1 µM); 0.572 in assay [1] (first compound 0.04 µM). The relative viability in assay [1] (first compound 0.1265 µM) worked out at 0.564; in assay [1] (first compound 0.4 µM), 0.47; in assay [1] (first compound 1.265 µM), 0.414; in assay [2] (first compound 0.04 µM), 0.43; in assay [2] (first compound 0.1265 µM) it was 0.489; in assay [2] (first compound 0.4 µM), 0.442. Moreover, the relative viability amounted to 0.468 in assay [2] (first compound 1.265 µM); 0.825 in assay [3] (first compound 0.04 µM); 0.729 in assay [3] (first compound 0.1265 µM); 0.819 in assay [3] (first compound 0.4 µM); 0.743 in assay [3] (first compound 1.265 µM).
In the case of NCI-H522, the relative viability was 0.89 in the assay with Motesanib + Vorinostat (first compound 0.01 µM); 0.927 with Motesanib + Vorinostat (first compound 0.03162 µM); 0.92 with Motesanib + Vorinostat (first compound 0.1 µM); 0.909 with Motesanib + Vorinostat (first compound 0.3162 µM); 1.05 in the assay with Motesanib + Vorinostat (first compound 1 µM); 0.856 in assay [1] (first compound 0.04 µM). Further, the relative viability in assay [1] (first compound 0.1265 µM) worked out at 0.628; in assay [1] (first compound 0.4 µM) it was 0.775; in assay [1] (first compound 1.265 µM) it was 0.789; in assay [2] (first compound 0.04 µM), 0.616; in assay [2] (first compound 0.1265 µM), 0.607; in assay [2] (first compound 0.4 µM), 0.591. Besides, the relative viability came to 0.639 in assay [2] (first compound 1.265 µM); 0.864 in assay [3] (first compound 0.04 µM); 0.809 in assay [3] (first compound 0.1265 µM); 0.69 in assay [3] (first compound 0.4 µM); 0.875 in assay [3] (first compound 1.265 µM).
As for NCI-H1395, the relative viability with Motesanib + Vorinostat (first compound 0.01 µM) was 0.56; with Motesanib + Vorinostat (first compound 0.03162 µM), 0.526; with Motesanib + Vorinostat (first compound 0.1 µM), 0.707; in the assay with Motesanib + Vorinostat (first compound 0.3162 µM) it was 0.794; in the assay with Motesanib + Vorinostat (first compound 1 µM), 0.677; in assay [1] (first compound 0.04 µM), 0.374. The relative viability in assay [1] (first compound 0.1265 µM) turned out to be 0.34; in assay [1] (first compound 0.4 µM) it was 0.388; in assay [1] (first compound 1.265 µM), 0.378; in assay [2] (first compound 0.04 µM) it was 0.7; in assay [2] (first compound 0.1265 µM) it was 0.705; in assay [2] (first compound 0.4 µM) it was 0.653. The relative viability in assay [2] (first compound 1.265 µM) was found to be 0.68; in assay [3] (first compound 0.04 µM), 0.803; in assay [3] (first compound 0.1265 µM) it was 0.415; in assay [3] (first compound 0.4 µM) it was 0.629; in assay [3] (first compound 1.265 µM) it was 0.528.
As to NCI-H358, the relative viability with Motesanib + Vorinostat (first compound 0.01 µM) was found to be 0.641; with Motesanib + Vorinostat (first compound 0.03162 µM), 0.67; with Motesanib + Vorinostat (first compound 0.1 µM) it was 0.71; in the assay with Motesanib + Vorinostat (first compound 0.3162 µM), 0.819; with Motesanib + Vorinostat (first compound 1 µM), 0.649; in assay [1] (first compound 0.04 µM) it was 0.128. In addition, the relative viability stood at 0.123 in assay [1] (first compound 0.1265 µM); 0.103 in assay [1] (first compound 0.4 µM); 0.124 in assay [1] (first compound 1.265 µM); 0.212 in assay [2] (first compound 0.04 µM); 0.146 in assay [2] (first compound 0.1265 µM); 0.165 in assay [2] (first compound 0.4 µM). Moreover, the relative viability in assay [2] (first compound 1.265 µM) was determined as 0.116; in assay [3] (first compound 0.04 µM) it was 0.451; in assay [3] (first compound 0.1265 µM), 0.35; in assay [3] (first compound 0.4 µM), 0.203; in assay [3] (first compound 1.265 µM), 0.156.
For NCI-H838, the relative viability with Motesanib + Vorinostat (first compound 0.01 µM) is 0.735; with Motesanib + Vorinostat (first compound 0.03162 µM), 0.75; in the assay with Motesanib + Vorinostat (first compound 0.1 µM), 0.801; with Motesanib + Vorinostat (first compound 0.3162 µM), 0.779; with Motesanib + Vorinostat (first compound 1 µM) it was 0.737; in assay [1] (first compound 0.04 µM), 0.299. The relative viability in assay [1] (first compound 0.1265 µM) came to 0.198; in assay [1] (first compound 0.4 µM), 0.187; in assay [1] (first compound 1.265 µM), 0.213; in assay [2] (first compound 0.04 µM), 0.461; in assay [2] (first compound 0.1265 µM), 0.467; in assay [2] (first compound 0.4 µM) it was 0.395. The relative viability came to 0.335 in assay [2] (first compound 1.265 µM); 0.7 in assay [3] (first compound 0.04 µM); 0.627 in assay [3] (first compound 0.1265 µM); 0.535 in assay [3] (first compound 0.4 µM); 0.266 in assay [3] (first compound 1.265 µM).
